Measurements published in ChEMBL document CHEMBL3872242, “Anti-inflammatory tetraquinane diterpenoids from a Crinipellis species” (Bioorg Med Chem, 2017).
Activity calls are given as the source filed them. The calls are words filed in the database; no cut-off is given here.

Experiments:
MONO-MAC-6 [1] = experiment: Inhibition of LPS/INF-gamma induced CXCL10 promoter dependent transcription activity in human MONO-MAC-6 cells measured after 4 hrs by luciferase reporter gene assay; assay type: functional
[2] = Effect on constitutive activity of EF-1alpha expressed in human MONO-MAC-6 cells up to 50 uM measured after 4 hrs by luciferase reporter gene assay; assay type: ADME, cell-based; conditions: mono-mac-6, 4 h
[3] = Cytotoxicity against human MONO-MAC-6 cells up to 50 uM measured after 24 hrs by XTT assay; assay type: toxicity, cell-based; conditions: mono-mac-6, 24 h
[4] = Inhibition of NF-kappaB (unknown origin) expressed in LPS/INF-gamma-stimulated human MONO-MAC-6 cells measured after 4 hrs by luciferase reporter gene assay; assay type: cell-based; conditions: MONO-MAC-6, 4 h
[5] = Inhibition of IRF (unknown origin) expressed in LPS/INF-gamma-stimulated human MONO-MAC-6 cells assessed as reduction in ISRE dependent transcription activity measured after 4 hrs by luciferase reporter gene assay; assay type: cell-based; conditions: MONO-MAC-6, 4 h
MONO-MAC-6 [6] = experiment: Inhibition of human THP1 cells derived IL-8 promoter dependent transcription activity expressed in LPS/INF-gamma stimulated human MONO-MAC-6 cells measured after 4 hrs by luciferase reporter gene assay; assay type: functional, cell-based; conditions: MONO-MAC-6, 4 h
[7] = Down regulation of TNF-alpha mRNA expression in LPS/INF-gamma stimulated human MONO-MAC-6 cells at 30 uM preincubated for 1 hr followed by LPS/INF-gamma stimulation measured after 4 hrs by quantitative RT-PCR analysis; assay type: functional, cell-based
[8] = Down regulation of IL-6 mRNA expression in LPS/INF-gamma stimulated human MONO-MAC-6 cells at 30 uM preincubated for 1 hr followed by LPS/INF-gamma stimulation measured after 4 hrs by quantitative RT-PCR analysis; assay type: functional, cell-based
[9] = Down regulation of […] mRNA expression in LPS/INF-gamma stimulated human MONO-MAC-6 cells at 30 uM preincubated for 1 hr followed by LPS/INF-gamma stimulation measured after 4 hrs by quantitative RT-PCR analysis; assay type: functional, cell-based
[10] = Down regulation of COX-2 mRNA expression in LPS/INF-gamma stimulated human MONO-MAC-6 cells at 30 uM preincubated for 1 hr followed by LPS/INF-gamma stimulation measured after 4 hrs by quantitative RT-PCR analysis; assay type: functional, cell-based
[11] = Down regulation of CCL2 mRNA expression in LPS/INF-gamma stimulated human MONO-MAC-6 cells at 30 uM preincubated for 1 hr followed by LPS/INF-gamma stimulation measured after 4 hrs by quantitative RT-PCR analysis; assay type: functional, cell-based
[12] = Down regulation of IL-8 mRNA expression in LPS/INF-gamma stimulated human MONO-MAC-6 cells at 30 uM preincubated for 1 hr followed by LPS/INF-gamma stimulation measured after 4 hrs by quantitative RT-PCR analysis; assay type: functional, cell-based
MONO-MAC-6 [13] = experiment: Inhibition of IL-6 mRNA expression in LPS/INF-gamma stimulated human MONO-MAC-6 cells at 30 uM preincubated for 1 hr followed by LPS/INF-gamma stimulation measured after 16 hrs; assay type: functional, cell-based
MONO-MAC-6 [14] = experiment: Inhibition of TNF-alpha mRNA expression in LPS/INF-gamma stimulated human MONO-MAC-6 cells at 30 uM preincubated for 1 hr followed by LPS/INF-gamma stimulation measured after 16 hrs; assay type: functional, cell-based
MONO-MAC-6 [15] = experiment: Inhibition of IL-23 mRNA expression in LPS/INF-gamma stimulated human MONO-MAC-6 cells at 30 uM preincubated for 1 hr followed by LPS/INF-gamma stimulation measured after 16 hrs; assay type: functional, cell-based
MONO-MAC-6 [16] = experiment: Inhibition of CXCL1 mRNA expression in LPS/INF-gamma stimulated human MONO-MAC-6 cells at 30 uM preincubated for 1 hr followed by LPS/INF-gamma stimulation measured after 16 hrs; assay type: functional, cell-based
MONO-MAC-6 [17] = experiment: Inhibition of CXCL10 mRNA expression in LPS/INF-gamma stimulated human MONO-MAC-6 cells at 30 uM preincubated for 1 hr followed by LPS/INF-gamma stimulation measured after 16 hrs; assay type: functional, cell-based
MONO-MAC-6 [18] = experiment: Inhibition of CXCL11 mRNA expression in LPS/INF-gamma stimulated human MONO-MAC-6 cells at 30 uM preincubated for 1 hr followed by LPS/INF-gamma stimulation measured after 16 hrs; assay type: functional, cell-based
MONO-MAC-6 [19] = experiment: Inhibition of IL-8 mRNA expression in LPS/INF-gamma stimulated human MONO-MAC-6 cells at 30 uM preincubated for 1 hr followed by LPS/INF-gamma stimulation measured after 16 hrs; assay type: functional, cell-based
MONO-MAC-6 [20] = experiment: Inhibition of CCL1 mRNA expression in LPS/INF-gamma stimulated human MONO-MAC-6 cells at 30 uM preincubated for 1 hr followed by LPS/INF-gamma stimulation measured after 16 hrs; assay type: functional, cell-based
MONO-MAC-6 [21] = experiment: Inhibition of CCL3 mRNA expression in LPS/INF-gamma stimulated human MONO-MAC-6 cells at 30 uM preincubated for 1 hr followed by LPS/INF-gamma stimulation measured after 16 hrs; assay type: functional, cell-based
[22] = Effect on GAPDH mRNA expression in human MONO-MAC-6 cells at 30 to 60 uM preincubated for 1 hr followed by LPS/INF-gamma stimulation measured after 4 hrs by quantitative RT-PCR analysis; assay type: ADME, cell-based; conditions: mono-mac-6, 4 h
[23] = Down regulation of TNF-alpha mRNA expression in LPS/INF-gamma stimulated human MONO-MAC-6 cells at 3.8 uM preincubated for 1 hr followed by LPS/INF-gamma stimulation measured after 4 hrs by quantitative RT-PCR analysis; assay type: functional, cell-based
[24] = Down regulation of IL-6 mRNA expression in LPS/INF-gamma stimulated human MONO-MAC-6 cells at 3.8 uM preincubated for 1 hr followed by LPS/INF-gamma stimulation measured after 4 hrs by quantitative RT-PCR analysis; assay type: functional, cell-based
[25] = Down regulation of […] mRNA expression in LPS/INF-gamma stimulated human MONO-MAC-6 cells at 3.8 uM preincubated for 1 hr followed by LPS/INF-gamma stimulation measured after 4 hrs by quantitative RT-PCR analysis; assay type: functional, cell-based
[26] = Down regulation of COX-2 mRNA expression in LPS/INF-gamma stimulated human MONO-MAC-6 cells at 3.8 uM preincubated for 1 hr followed by LPS/INF-gamma stimulation measured after 4 hrs by quantitative RT-PCR analysis; assay type: functional, cell-based
[27] = Down regulation of CCL2 mRNA expression in LPS/INF-gamma stimulated human MONO-MAC-6 cells at 3.8 uM preincubated for 1 hr followed by LPS/INF-gamma stimulation measured after 4 hrs by quantitative RT-PCR analysis; assay type: functional, cell-based
[28] = Down regulation of IL-8 mRNA expression in LPS/INF-gamma stimulated human MONO-MAC-6 cells at 3.8 uM preincubated for 1 hr followed by LPS/INF-gamma stimulation measured after 4 hrs by quantitative RT-PCR analysis; assay type: functional, cell-based
MONO-MAC-6 [29] = experiment: Inhibition of IL-6 mRNA expression in LPS/INF-gamma stimulated human MONO-MAC-6 cells at 3.8 uM preincubated for 1 hr followed by LPS/INF-gamma stimulation measured after 16 hrs; assay type: functional, cell-based
MONO-MAC-6 [30] = experiment: Inhibition of TNF-alpha mRNA expression in LPS/INF-gamma stimulated human MONO-MAC-6 cells at 3.8 uM preincubated for 1 hr followed by LPS/INF-gamma stimulation measured after 16 hrs; assay type: functional, cell-based
MONO-MAC-6 [31] = experiment: Inhibition of IL-23 mRNA expression in LPS/INF-gamma stimulated human MONO-MAC-6 cells at 3.8 uM preincubated for 1 hr followed by LPS/INF-gamma stimulation measured after 16 hrs; assay type: functional, cell-based
MONO-MAC-6 [32] = experiment: Inhibition of CXCL1 mRNA expression in LPS/INF-gamma stimulated human MONO-MAC-6 cells at 3.8 uM preincubated for 1 hr followed by LPS/INF-gamma stimulation measured after 16 hrs; assay type: functional, cell-based
MONO-MAC-6 [33] = experiment: Inhibition of CXCL10 mRNA expression in LPS/INF-gamma stimulated human MONO-MAC-6 cells at 3.8 uM preincubated for 1 hr followed by LPS/INF-gamma stimulation measured after 16 hrs; assay type: functional, cell-based
MONO-MAC-6 [34] = experiment: Inhibition of CXCL11 mRNA expression in LPS/INF-gamma stimulated human MONO-MAC-6 cells at 3.8 uM preincubated for 1 hr followed by LPS/INF-gamma stimulation measured after 16 hrs; assay type: functional, cell-based
MONO-MAC-6 [35] = experiment: Inhibition of IL-8 mRNA expression in LPS/INF-gamma stimulated human MONO-MAC-6 cells at 3.8 uM preincubated for 1 hr followed by LPS/INF-gamma stimulation measured after 16 hrs; assay type: functional, cell-based
MONO-MAC-6 [36] = experiment: Inhibition of CCL1 mRNA expression in LPS/INF-gamma stimulated human MONO-MAC-6 cells at 3.8 uM preincubated for 1 hr followed by LPS/INF-gamma stimulation measured after 16 hrs; assay type: functional, cell-based
MONO-MAC-6 [37] = experiment: Inhibition of CCL3 mRNA expression in LPS/INF-gamma stimulated human MONO-MAC-6 cells at 3.8 uM preincubated for 1 hr followed by LPS/INF-gamma stimulation measured after 16 hrs; assay type: functional, cell-based
[38] = Effect on GAPDH mRNA expression in human MONO-MAC-6 cells at 2.52 to 3.8 uM preincubated for 1 hr followed by LPS/INF-gamma stimulation measured after 4 hrs by quantitative RT-PCR analysis; assay type: ADME, cell-based; conditions: mono-mac-6, 4 h

## CC(C)[C@H]1CC[C@]23C[C@@H]4[C@H](C)C(=O)[C@H]5O[C@]54[C@@]2(C)[C@@H](O)C(=O)[C@]13C
MONO-MAC-6 [1]
  inhibition: Dose-dependent effect
[2]
  Activity: Non-Toxic
[3]
  Activity: Non-Toxic
[4]
  IC50: 20 to 25 µM
[5]
  IC50: 40 to 45 µM
MONO-MAC-6 [6]
  IC50: 7 to 7.5 µM
[7]
  Activity: Active
[8]
  Activity: Active
[9]
  Activity: Active
[10]
  Activity: Active
[11]
  Activity: Active
[12]
  Activity: Active
MONO-MAC-6 [13]
  inhibition: Active
MONO-MAC-6 [14]
  inhibition: Active
MONO-MAC-6 [15]
  inhibition: Active
MONO-MAC-6 [16]
  inhibition: Active
MONO-MAC-6 [17]
  inhibition: Active
MONO-MAC-6 [18]
  inhibition: Active
MONO-MAC-6 [19]
  inhibition: Active
MONO-MAC-6 [20]
  inhibition: Active
MONO-MAC-6 [21]
  inhibition: Active
[22]
  Activity: Non-Toxic

## CC(C)[C@H]1CC[C@]23C[C@@H]4[C@H](C)C(=O)[C@H]5O[C@]54[C@@]2(C)CC(=O)[C@]13C
MONO-MAC-6 [1]
  inhibition: Dose-dependent effect
[2]
  Activity: Non-Toxic
[3]
  Activity: Non-Toxic
[4]
  IC50: 0.32 to 0.4 µM
[5]
  IC50: 0.8 to 1 µM
MONO-MAC-6 [6]
  IC50: 0.9 to 1.2 µM
[23]
  Activity: Active
[24]
  Activity: Active
[25]
  Activity: Active
[26]
  Activity: Active
[27]
  Activity: Active
[28]
  Activity: Active
MONO-MAC-6 [29]
  inhibition: Active
MONO-MAC-6 [30]
  inhibition: Active
MONO-MAC-6 [31]
  inhibition: Active
MONO-MAC-6 [32]
  inhibition: Active
MONO-MAC-6 [33]
  inhibition: Active
MONO-MAC-6 [34]
  inhibition: Active
MONO-MAC-6 [35]
  inhibition: Active
MONO-MAC-6 [36]
  inhibition: Active
MONO-MAC-6 [37]
  inhibition: Active
[38]
  Activity: Non-Toxic

## C=C[C@H]1CC[C@]23C[C@@H]4[C@H](C)[C@@H](O)[C@H]5O[C@@]45[C@@]2(C)CC(=O)[C@]13C
[2]
  Activity: Non-Toxic
[3]
  Activity: Non-Toxic
[4]
  IC50: > 50 µM
[5]
  IC50: > 50 µM
MONO-MAC-6 [6]
  IC50: > 50 µM
